The results in this text go back to US20030004172A1, “Fused pyrimidinone matrix metalloproteinase inhibitors” (priority 2001, published 2003).

The target in the assay is MMP-13CD (catalytic domain of collagenase-3) (Homo sapiens, UniProt P45452). Kind of assay: Thiopeptolide substrate hydrolysis inhibition assay, MMP-13CD. It counts as biochemical. Conditions: Table I; thiopeptolide substrate, HEPES pH 7.0, 22° C.; read-out: MMP-13CD IC50. From the text: Thiopeptolide substrates show virtually no decomposition or hydrolysis at or below neutral pH in the absence of a matrix metalloproteinase enzyme.

On to `COc1ccc(CNC(=O)c2cc3c(=O)n(CCS(=O)(=O)c4cccc(C(F)(F)F)c4)c(=O)n(C)c3s2)cc1` [Example 245, 1-Methyl-2,4-dioxo-3-[2-(3-trifluoromethyl-benzenesulfonyl)-ethyl]-1,2,3,4-tetrahydro-thieno[2,3-d]pyrimidine-6-carboxylic acid 4-methoxy-benzylamide], for which the IC50 worked out at 30 µM.
In the case of `COc1ccc(CNC(=O)c2cc3c(=O)n(CCS(=O)(=O)c4ccc(Cl)cc4)c(=O)n(C)c3s2)cc1` [Example 247, 3-[2-(4-Chloro-benzenesulfonyl)-ethyl]-1-methyl-2,4-dioxo-1,2,3,4-tetrahydro-thieno[2,3-d]pyrimidine-6-carboxylic acid 4-methoxy-benzylamide], the IC50 came to 7.2 µM.
Under `Cc1cc(Cn2c(=O)c3cc(C(N)=O)sc3n(C)c2=O)ccc1C(=O)O` [Example 249] stands 7.8 µM.
With `Cc1cc(Cn2c(=O)c3cc(C(=O)NCc4cccc(O)c4)sc3n(C)c2=O)ccc1C(=O)O` [Example 250, 4-[6-(3-hydroxy-benzylcarbamoyl)-1-methyl-2,4-dioxo-1,4-dihydro-2H-thieno[2,3-d]pyrimidin-3-ylmethyl]-2-methyl-benzoic acid], the half-inhibitory concentration (IC50) is 0.00765 µM.
Under `Cn1c(=O)n(Cc2ccc(C(=O)O)c(O)c2)c(=O)c2cc(C(N)=O)sc21` [Example 251] stands 0.655 µM.
Under `COc1cccc(CNC(=O)c2cc3c(=O)n(CCN)c(=O)n(C)c3s2)c1` [Example 252, 3-(2-Aminoethyl)-1-methyl-2,4-dioxo-1,2,3,4-tetrahydro-thieno[2,3-d]pyrimidine-6-carboxylic acid 3-methoxy-benzylamide] stands 24 µM.
As to `COc1ccc(CNC(=O)c2cc3c(=O)n(C(C)c4ccccc4)c(=O)n(C)c3s2)cc1` (stereo not drawn) [Example 253], the IC50 was 0.81 µM.
On to `COc1ccc(CNC(=O)c2cc3c(=O)n(CCC(=O)c4ccccc4)c(=O)n(C)c3s2)cc1` [Example 254], for which the IC50 was determined as 1.5 µM.
On to `COc1ccc(CNC(=O)c2cc3c(=O)n(CC[C@@H](C)CCC=C(C)C)c(=O)n(C)c3s2)cc1` [Example 255], for which the 50% inhibitory concentration (IC50) turned out to be 14 µM.
Consider `CCCCC(CC)Cn1c(=O)c2cc(C(=O)NCc3ccc(OC)cc3)sc2n(C)c1=O` (stereo not drawn) [Example 256], for which the IC50 was 27.5 µM.
Under `COc1ccc(CNC(=O)c2cc3c(=O)n(CCCCCC#N)c(=O)n(C)c3s2)cc1` [Example 257] stands 1.5 µM.
Consider `C/C=C/Cn1c(=O)c2cc(C(=O)NCc3ccc(OC)cc3)sc2n(C)c1=O` [Example 258], for which the IC50 was 0.27 µM.
Under `COc1ccc(CNC(=O)c2cc3c(=O)n(CCc4cccc5ccccc45)c(=O)n(C)c3s2)cc1` [Example 259] stands 30 µM; under `CC/C=C/Cn1c(=O)c2cc(C(=O)NCc3ccc(OC)cc3)sc2n(C)c1=O` [Example 260], 0.063 µM.
As for `COc1ccc(CNC(=O)c2cc3c(=O)n(CCSc4ccccc4)c(=O)n(C)c3s2)cc1` [Example 261], the IC50 amounted to 0.58 µM.
Turning to `CCC(C)n1c(=O)c2cc(C(=O)NCc3ccc(OC)cc3)sc2n(C)c1=O` (stereo not drawn) [Example 262], the IC50 was determined as 3.4 µM.
`C=C(C)Cn1c(=O)c2cc(C(=O)NCc3ccc(OC)cc3)sc2n(C)c1=O` [Example 263]: the IC50 was 2.15 µM.
Then `CCC(CC)n1c(=O)c2cc(C(=O)NCc3ccc(OC)cc3)sc2n(C)c1=O` [Example 264], with 7.4 µM; and `CCC#CCn1c(=O)c2cc(C(=O)NCc3ccc(OC)cc3)sc2n(C)c1=O` [Example 265], with 0.038 µM; and `COc1ccc(CNC(=O)c2cc3c(=O)n(CCS(=O)(=O)c4ccccc4)c(=O)n(C)c3s2)cc1` [Example 266], with 4 µM.
Under `COc1ccc(CNC(=O)c2cc3c(=O)n(CC=C(C)C)c(=O)n(C)c3s2)cc1` [Example 267] stands 1.1 µM; under `COc1ccc(CNC(=O)c2cc3c(=O)n(CCS(=O)(=O)c4ccc(F)cc4)c(=O)n(C)c3s2)cc1` [Example 268], 3.6 µM.
Under `COc1ccc(CNC(=O)c2cc3c(=O)n(CCS(=O)(=O)c4ccc(C)cc4)c(=O)n(C)c3s2)cc1` [Example 269] stands 26 µM; under `COc1ccc(CNC(=O)c2cc3c(=O)n(CCC(=O)c4ccc(F)cc4)c(=O)n(C)c3s2)cc1` [Example 270], 1.8 µM.
Regarding `COc1ccc(CNC(=O)c2cc3c(=O)n(CCC(=O)c4ccc(Cl)cc4)c(=O)n(C)c3s2)cc1` [Example 271], the IC50 came to 5.9 µM.
Then `COc1ccc(CNC(=O)c2cc3c(=O)n(CCNC(=O)c4ccccc4)c(=O)n(C)c3s2)cc1` [Example 272], with 30 µM; and `COc1ccc(CNC(=O)c2cc3c(=O)n(CCOc4ccc(Br)cc4)c(=O)n(C)c3s2)cc1` [Example 273], with 0.059 µM.
Under `COc1ccc(CNC(=O)c2cc3c(=O)n(Cc4ccc5nonc5c4)c(=O)n(C)c3s2)cc1` [Example 274] stands 0.018 µM.
Turning to `COc1ccc(CNC(=O)c2cc3c(=O)n(CCOc4ccccc4)c(=O)n(C)c3s2)cc1` [Example 275], the IC50 stood at 0.036 µM.
Under `COC(=O)Nc1cc(Cn2c(=O)c3cc(C(=O)NCc4ccc(OC)cc4)sc3n(C)c2=O)on1` [Example 276] stands 0.23 µM; under `COc1ccc(CNC(=O)c2cc3c(=O)n(CC(=O)C(CC(=O)OC(C)(C)C)NC(=O)OCc4ccccc4)c(=O)n(C)c3s2)cc1` (stereo not drawn) [Example 277], 20 µM; under `COc1cccc(CNC(=O)c2cc3c(=O)n(CCSc4ccc(Cl)cc4)c(=O)n(C)c3s2)c1` [Example 278], 7.6 µM.
Then `COc1cccc(CNC(=O)c2cc3c(=O)n(C(C)c4ccccc4)c(=O)n(C)c3s2)c1` (stereo not drawn) [Example 279], with 3.5 µM; and `COc1cccc(CNC(=O)c2cc3c(=O)n(CC[C@@H](C)CCC=C(C)C)c(=O)n(C)c3s2)c1` [Example 280], with 17 µM.
Under `CCCCC(CC)Cn1c(=O)c2cc(C(=O)NCc3cccc(OC)c3)sc2n(C)c1=O` (stereo not drawn) [Example 281] stands 8.9 µM; under `COc1cccc(CNC(=O)c2cc3c(=O)n(CCS(=O)(=O)Cc4ccccc4)c(=O)n(C)c3s2)c1` [Example 282], 10 µM; under `COc1cccc(CNC(=O)c2cc3c(=O)n(CCCCCC#N)c(=O)n(C)c3s2)c1` [Example 283], 1.7 µM.
With `C/C=C/Cn1c(=O)c2cc(C(=O)NCc3cccc(OC)c3)sc2n(C)c1=O` [Example 284], the IC50 was 1.5 µM.
Then `COc1cccc(CNC(=O)c2cc3c(=O)n(CCc4cccc5ccccc45)c(=O)n(C)c3s2)c1` [Example 285], with 30 µM; and `CC/C=C/Cn1c(=O)c2cc(C(=O)NCc3cccc(OC)c3)sc2n(C)c1=O` [Example 286], with 0.27 µM.
Under `COc1cccc(CNC(=O)c2cc3c(=O)n(CCSc4ccccc4)c(=O)n(C)c3s2)c1` [Example 287] stands 1.9 µM; under `CCC(C)n1c(=O)c2cc(C(=O)NCc3cccc(OC)c3)sc2n(C)c1=O` (stereo not drawn) [Example 288], 4.2 µM.
Under `C=C(C)Cn1c(=O)c2cc(C(=O)NCc3cccc(OC)c3)sc2n(C)c1=O` [Example 289] stands 2.7 µM; under `CCC(CC)n1c(=O)c2cc(C(=O)NCc3cccc(OC)c3)sc2n(C)c1=O` [Example 290], 15 µM; under `CCC#CCn1c(=O)c2cc(C(=O)NCc3cccc(OC)c3)sc2n(C)c1=O` [Example 291], 0.12 µM.

A word on the IC50: it is the concentration that inhibits the measured activity by half.
